The melting point is the temperature of the solid-liquid transition.

SMILES strings stand for the structures.

The results in this text go back to a melting point compilation (Tetko et al.; mined from patent text by program, amines drawn as free bases though some values may be those of a salt).

As to `CNC(=O)C(=O)CCCCCCc1csc(-c2ccc(Cl)cc2)n1`, the melting point lay in the range of 77 to 81 °C.

`O=C(N[C@H](Cc1ccc(CC(F)(F)C(F)(F)F)cc1)[C@@H](O)c1cccc(Cl)c1)c1cccc2c1C=CCCC2` (racemic) showed a melting point of 176 to 177 °C.

For the compound `O=C(CCCCl)c1ccc2c(c1)Cc1cc(C(=O)CCCCl)ccc1O2`, the melting point is 131 to 132 °C.

Consider `CCOC(=O)C1=C(C)N2CCNC2=C(C(=O)OCC)C1c1cccc2ccccc12` (configuration not stated), for which the melting point is 169 to 170 °C.

Turning to `CC(C)OCN1CCN(Cc2ccc(Cl)nc2)C1=NC#N`, the melting point lay within 85 to 87 °C.

With `C=C(CN(Cc1ccccc1)Cc1ccccc1)C(=O)OC(C)(C)C`, the melting point was 62 to 63 °C.

`CC(C)c1ncc(CN2C(=O)C3(COc4cc5c(cc43)OCO5)c3ccccc32)o1` (configuration not stated): the melting point is 75 to 77 °C.

In turn, `Cn1cc(-c2ccc3ncn(Cc4ccc5ncccc5c4)c3n2)cn1` showed a melting point of 150 to 152 °C.

The compound `CCOC(=O)N1C(=O)NC(=O)C12C(=O)N(Cc1ccc(Cl)c(Cl)c1)c1ccccc12` (configuration not stated) had a melting point of 192 to 194 °C.

`O=C(Cc1ccc2ccccc2c1OCC1CO1)NCCO[N+](=O)[O-]` (configuration not stated) gave a melting point of 67 to 71 °C.

The compound `CC(C)(C)c1cc(OCc2cccc(-c3nnn[nH]3)c2)cc(C(C)(C)C)c1O` gave a melting point of 163 to 164 °C.

In turn, `CN(C(=O)Nc1nc(OCC(F)(F)F)cc(OCC(F)(F)F)n1)c1ccc(C(F)(F)F)s1` returned a melting point of 99 to 101 °C.

`COC(=O)CCCc1cc2c(Nc3cc(OC)c(OC)c(OC)c3)c(C#N)cnc2s1` yielded a melting point of 101 to 103 °C.

`CCOC(=O)c1csc(Cc2ccc(NC(=O)/C=C/c3cnn(C)c3-c3ccc(F)cc3)cc2)n1` displayed a melting point of 189 to 190 °C.

`O=C(Nc1ccc(Br)c(C(F)(F)F)c1)c1cccnc1NCn1ccccc1=O` yielded a melting point of 202 to 205 °C.

On to `COc1cccc2sc(-c3ccc(C(F)(F)F)cc3)nc12`, for which the melting point turned out to be 104 °C.

`CCn1ncc2c(NCc3ccc(OCCN4CCOCC4)cc3)c3ccccc3nc21`: the melting point is 170 to 172 °C.

In turn, `CCOCc1nc2c(N)nc(C)c(C)c2n1NCCCNS(C)(=O)=O` displayed a melting point of 147 to 149 °C.

`Cc1ccc2cccc(OCc3c(Cl)ccc(OCCNC(=O)CCc4ccccc4)c3Cl)c2n1`: the melting point fell in the range of 112 to 114 °C.

For `Cc1ccc(-c2cc(-c3ccccc3)c(-c3ccccc3)s2)cc1`, the melting point lay in the range of 110 to 112 °C.

In turn, `COC(=O)c1ccccc1S(=O)(=O)NC(=O)n1nc(Oc2ccccc2)n(C)c1=O` came in with a melting point of 161 °C.

`CC(C)(C)c1csc(NC(=O)c2ccn3c(=O)c(/C=C/C(=O)O)c(N4CCCC(CC(=O)NCCO)C4)nc3c2)n1` (configuration not stated) gave a melting point of 167 to 175 °C.

With `O=c1n(-c2ccc(OCC(F)(F)C(F)F)cc2)cnn1-c1ccc([N+](=O)[O-])cc1`, the melting point lay in the range of 161 to 162 °C.

`COCc1cc(NC(=O)OC)no1` yielded a melting point of 90 to 91 °C.

`CS(=O)(=O)c1ccc(C(=O)C2C(=O)N(C(N)=O)c3ccc(Cl)cc32)s1` (configuration not stated): the melting point was 212 to 214 °C.

Turning to `O=C(O)c1cc2cccc(I)c2s1`, the melting point was in the range of 268 to 270 °C.

As to `CN1C(=O)CCC2(C)c3ccc(Sc4ccccc4Cl)cc3CCC12` (single isomer, unassigned; (+)), the melting point lay in the range of 123 to 125 °C.

Compound `CC1OC(O)CC(NC(=O)C(F)(F)F)C1(C)O` (configuration not stated) came in with a melting point of 110 to 111 °C.

`CC(O)=C(C(=O)OCC(Cl)(Cl)Cl)N1C(=O)C(NC(=O)COc2ccccc2)C1SSc1nc2ccccc2s1` (configuration not stated) came in with a melting point of 129 to 130 °C.

On to `O=C(Nc1ccc(Br)cc1)c1ccccc1NCc1ccncc1`, for which the melting point was 136 to 137 °C.

Compound `O=C(NCc1ccccc1)c1nn(-c2ccc(Cl)cc2)c2c1C1CCC2C1` (configuration not stated) registered a melting point of 112 to 115 °C.

`BrCc1cc(-c2ccccc2)cs1` yielded a melting point of 87 to 88.5 °C.

Take `O=C(Cc1ccccc1)c1ccc(OCC(F)(F)F)cc1`: the melting point is 108 °C.

`Cc1oc(-c2ccccc2)nc1CCOc1ccc(C[C@H](OC(C)C)C(=O)O)c2sccc12` returned a melting point of 167 to 168 °C.

`CCOC(=O)c1cc(C)cc([N+](=O)[O-])c1O` returned a melting point of 97 °C.

For `CCCc1c(OCCCOc2ccc(C(=O)OCCCN(C)C)cc2F)ccc(C(C)=O)c1O`, the melting point lay within 55 to 56 °C.

`Cc1cc2c3c(ccc2[nH]1)OCC(CN1CC=C(c2c[nH]c4ccccc24)CC1)O3` (configuration not stated) showed a melting point of 212 to 215 °C.

`CCCCCc1c(C)nc(C)c(CO)c1-c1ccccc1` returned a melting point of 99 to 100 °C.

Compound `Cc1cccc(C)c1N(CCCC(=O)NCC(=O)O)C(=O)c1ccc(Cl)cc1` showed a melting point of 141 to 142 °C.

With `CCOC(=O)C(C)(C)NC(=O)c1ccc(S(=O)(=O)N2C(=O)C(NC)(c3ccccc3Cl)c3cc(Cl)ccc32)c(OC)c1` (configuration not stated), the melting point was determined as 141 °C.

In turn, `CCCC(Cn1cncn1)(OCC)c1ccc(Cl)cc1Cl` (configuration not stated) returned a melting point of 67 °C.

With `O=C1CCC(c2ccccc2)(N2CCCCC2)CC1`, the melting point is 116 to 117 °C.

Consider `Cc1cc(SC2=C(O)CC(CCc3ccco3)(C(C)C)OC2=O)c(C(C)(C)C)cc1CO` (configuration not stated), for which the melting point lay in the range of 64 to 110 °C.

Compound `Cc1cnc(CNC(=O)CCc2cnoc2-c2ccc(Cl)cc2)cn1` gave a melting point of 124 to 125 °C.

Compound `CC(=O)c1ccc2c(c1)C1(c3ccccc3-2)c2cc(C(C)=O)ccc2-c2ccc(C(C)=O)cc21` registered a melting point of 258 to 260 °C.

In turn, `COC(=O)C1=C(O)c2cc(Cl)ccc2S(=O)(=O)N1C` came in with a melting point of 201 °C.

Turning to `Nc1nnc(-c2cccc(OC(F)(F)C(F)F)c2)c(N)n1`, the melting point is 199 to 200 °C.

Consider `CC12CCC(O)CC1=CCC1C2CCC2(C)C(c3cccnc3)=CCC12` (configuration not stated), for which the melting point fell in the range of 214 to 218 °C.

Compound `Nc1nc(O)cc(CCl)n1` gave a melting point of 195 to 197 °C.

Compound `COC(=O)[C@@H]1CCCCN1S(=O)(=O)c1ccc(Cl)c(COc2cccc3c(-n4ccnc4)cc(C)nc23)c1Cl` gave a melting point of 81 °C.

`COc1cc2cc[nH]c2cc1OCCCCl` came in with a melting point of 73 to 75 °C.

The compound `O=C1CC2CCSc3sc(CCO)cc3C2=NN1` (configuration not stated) gave a melting point of 165 to 167 °C.

Compound `CS(=O)(=O)c1ccc(-n2cc(-c3ccc(Br)cc3)nc2-c2ccc(Cl)cc2)cc1` came in with a melting point of 145 to 148 °C.

For the compound `Fc1cc(Cl)cc(Cn2cccc2)c1`, the melting point fell in the range of 48 to 50 °C.

`CC1OC(=O)c2c(S)cccc21` (configuration not stated) returned a melting point of 40 °C.

`CC(=O)c1nn[nH]c1-c1ccccc1` showed a melting point of 117 to 118 °C.

The compound `O=C(O)CC1(c2ccc(Cl)cc2)Oc2ccccc2O1` displayed a melting point of 138 °C.

Compound `CC(=O)OC(c1ccc(OCc2ccccc2)cc1)C(F)(F)F` (configuration not stated) gave a melting point of 85 to 87 °C.

The compound `COc1nc2cc([N+](=O)[O-])c(C)c(C(=O)NCC(=O)OC(C)(C)C)c2nc1OC` displayed a melting point of 125 to 126 °C.

Turning to `Cn1ccnc1CC1COc2ccccc2O1` (configuration not stated), the melting point fell in the range of 158 to 160 °C.

Turning to `CCC1(CC(=O)O)OCCc2c1[nH]c1c(OCC(F)(F)F)c(Cl)ccc21` (configuration not stated), the melting point was found to be 157 °C.

Compound `O=C(O)C=Cc1c(-c2ccccc2)nn2ccccc12` came in with a melting point of 153 to 155 °C.

On to `Cc1c(C(C)(C)C(=O)O)nc2ccc(NCCCN3CCC(OC(c4ccccc4)c4ccccc4)CC3)nn12`, for which the melting point was 219 to 220 °C.

Compound `CC(C)C[C@H](NC(=O)OCC1c2ccccc2-c2ccccc21)C(=O)N[C@H]1CCOC1=O` gave a melting point of 175 to 176 °C.

In turn, `CCOc1nc(NCc2ccncc2)nc(Nc2ccc3[nH]c(=O)[nH]c3c2)n1` gave a melting point of 210 to 212 °C.

For the compound `CCCCCCCCCCCCc1ccc(S(=O)(=O)Nc2nnc(C(C)(C)C)s2)cc1`, the melting point was 117 to 118 °C.

Compound `Nc1nc(Nc2ccccc2)sc1C(=O)c1cccnc1` showed a melting point of 227 to 228 °C.

The compound `Cc1oc(-c2ccc(F)cc2)nc1COc1cccc2cc(NS(=O)(=O)C(F)(F)F)ccc12` came in with a melting point of 178 to 180 °C.

The compound `CCCc1nc(C(C)(C)O)c(C(=O)OCOC(=O)OC(C)C)[nH]1` displayed a melting point of 144 to 146 °C.

With `CCCn1c(=O)n(C)c(=O)c2[nH]c(-c3cc(S(=O)(=O)NCCNC)ccc3OCC)c(Cl)c21`, the melting point was found to be 226 °C.

As to `CC(C)OC(=O)N1CCC(c2nc3cc(-c4ccc(C=O)cc4)ccc3o2)CC1`, the melting point was 167 to 170 °C.

Compound `CNC1C(O)C(OC2C(N)CC(N)C(OC3OC(C(C)O)C(O)C(O)C3N)C2O)OCC1(C)O` (configuration not stated) registered a melting point of 65 °C.

On to `Cc1cc(Cl)ccc1-c1c(O)c(C)c(-c2ccccn2)oc1=O`, for which the melting point lay within 133 to 135 °C.

`CC(C)Cc1[nH]nc2c(N)nc3ccccc3c12`: the melting point lay within 248 to 249 °C.

In turn, `CC(C)C1=NCCSC1=NO` showed a melting point of 167 to 169 °C.

Compound `Cc1c(F)cccc1Cc1c(-c2ccccc2)c2ccccn2c1C(=O)N1CCN[C@@H](CC(=O)NCC2CCOCC2)C1` gave a melting point of 147 °C.

`CN(C(=O)OC(C)(C)C)c1sc(-c2cccnc2)nc1Cl` returned a melting point of 119 to 122 °C.

`CCCC(O)c1cccc(NC(=O)OCc2ccccc2)c1` (configuration not stated) returned a melting point of 103 to 106 °C.

Regarding `Fc1ccc(F)c(CN2CCNc3ncc(I)cc32)c1`, the melting point was 175 °C.

In turn, `Cc1ccc(-c2nc(COc3ccc(CCCn4ccnc4)cc3)co2)s1` came in with a melting point of 83 to 84 °C.

`CS(=O)(=O)c1ncc(-c2ccccc2)c(C(F)(F)F)n1` yielded a melting point of 110 to 112 °C.

Regarding `Oc1cc2[nH]c3ccccc3c2cc1O`, the melting point was in the range of 279 to 283 °C.

Compound `Cc1nc(C)n(-c2cc([C@@H]3C[C@H]3c3nc4ccccc4n3C)nc(C3CC3)n2)n1` (relative stereo) registered a melting point of 180 to 182 °C.

As for `CCOC(=O)c1cc(C)n(-c2ccc([N+](=O)[O-])cn2)c1-c1ccccc1`, the melting point was in the range of 147 to 149 °C.

In turn, `CCCCCCc1cc(C(=O)O)c(C)o1` yielded a melting point of 59 to 60 °C.

For `CCOC(=O)c1cn2c3c(c(F)c(F)c(F)c3c1=O)CCN2C`, the melting point is 236 to 240 °C.

Consider `O=C1NCN(c2ccc(Br)cc2)C12CCN(C1C=CC(c3ccc(F)cc3)(c3ccc(F)cc3)CC1)CC2` (configuration not stated), for which the melting point was in the range of 219 to 221 °C.
